Assay results taken from patent US20220218835A1, “COMBINATION THERAPY” (priority 2019, published 2022).

System: MM1S tumours
Assay: MM1S xenograft mouse model
Type: in vivo, CB17 SCID mice
Method: A CB17 SCID mice (n=7 each group) with palpable MM1S tumour implants were randomized and treated with control vehicle, a single dose of M2 (0.4 mg/kg), six doses of btz (0.4 mg/kg), or combination of M2 and btz (M2+btz) for 2 weeks. […] D Tumour tissue sections from each group were immunohistochemically analyzed for Ki-67 (original magnification, ×400). […] Tumours were removed at the same treatment day from representative mice.
CB-17 SCID-mice were subcutaneously inoculated with 5.0×106 MM.1S cells in 100 μl of serum-free RPMI 1640 medium. When tumours were measurable approximately 3 weeks after MM-cell injection, mice (8 mice/group) were randomized and treated with vehicle alone, M2, btz, or M2 with btz. Tumour size was measured every third day in 2 dimensions using calipers, and tumour volume was calculated using the following formula: V=0.5a×b2, where “a” and “b” are the long and short diameter of the tumour, respectively. Animals were sacrificed when their tumours reached 2 cm^3.
Following 3d-treatment, tumour from each group was harvested and cell lysates were made for immunoblotting. […] Immunohistochemical images were taken on Zeiss Inverted Fluorescence Microscope for Ki67. […]
In vivo efficacy of sub-optimal doses M2 with btz was next evaluated in the MM1S xenograft mouse model. […]

In the case of CC(C)C[C@H](NC(=O)[C@H](Cc1ccccc1)NC(=O)c1cnccn1)B(O)O [btz, Bortezomib], the MM1S tumour growth (24d after treatment, single dose M2, 6 doses btz (0.4 mg/kg)) is reported as “significantly delays” and the median overall survival (Kaplan-Meier, follow-up 177 d) is reported as 35 days.
